# US8097592B2, “Cocrystal of C-glycoside derivative and L-proline” (Astellas Pharma Inc., priority 2006, dated 2012)
# Tests used:
# [1] = Storage stability test (X-ray powder diffraction at various humidities and storage conditions); assay type: physicochemical
# Description: (2) Humidity-Controlled Measurement “MAC Science […] 22 with a multifunctional humidity and temperature converter ([…] 235)” equipped with a copper X-ray tube was used under the conditions of a current of 350 mA, a tube voltage of 50 kV, a sampling width of 0.020°, a scanning rate of 3°/min, wavelength of 1.54056 Å, and measurement angles of diffraction range of (2θ): 5 to 40°. [Storage Stability Test] The measurement of X-ray powder diffraction was conducted continuously at 25° C. in a relative humidity range of 2 to 88%.
# [2] = Moisture absorptivity test (weight change, VTI SGS-100); assay type: physicochemical; settings: for moisture absorption behaviour: interval 5%
# Description: [Moisture Absorptivity Test] Weight change was measured by using of “VTI SGS-100” under the conditions of temperature=25° C., relative humidity range=5 to 95%, and relative humidity interval=5%. […] Further, while known compound A gives moisture absorption curves slightly different from each other depending upon the particle size and crystal habit, there was a case that 3.2% of water was desorbed and absorbed at 25° C. at 5 to 95% RH.
# KK-A^y mice = assay: Test for confirming effect of antihyperglycemic action (blood sugar AUC 0 to 8 hours); assay type: in vivo; settings: non-fasted male KK-A^y mice, oral, 1 mg/10 mL suspension at 10 mL/kg
# Description: (Test 2): [Test for Confirming Effect of Antihyperglycemic Action] Non-fasted KK-A^y mice (Clea Japan, Inc., male) were used as a test animal. The cocrystal of the present invention was suspended in an aqueous 0.5% methyl cellulose solution, in a concentration of 1 mg/10 mL. The body weight of each mouse was measured, and the suspension of the cocrystal of the present invention was forcibly administered orally in an amount of 10 mL/kg. Only the aqueous 0.5% methyl cellulose solution was administered to a control group. The number of mice per each group was 6. Blood samples were taken from the tail vein of each mouse right before administration and 1, 2, 4 and 8 hours after administration. Blood sugar value was measured using Glucose CII Test Wako (Wako Pure Chemical Industries, ltd.). From the blood sugar values of the cocrystal of the present invention-administered group at 0 to 8 hours were calculated an area under blood sugar value-time curve (AUC) according to the trapezoidal method; a ratio (%) of that area to the area of control group was determined; and it was taken as intensity of […] action.
# [3] = target: Human Na^+-Glucose Cotransporter (Human SGLT2) (Homo sapiens, UniProt P31639); assay: cell-based
# Chain of Human Na^+-Glucose Cotransporter (Human SGLT2) (P31639 whole entry): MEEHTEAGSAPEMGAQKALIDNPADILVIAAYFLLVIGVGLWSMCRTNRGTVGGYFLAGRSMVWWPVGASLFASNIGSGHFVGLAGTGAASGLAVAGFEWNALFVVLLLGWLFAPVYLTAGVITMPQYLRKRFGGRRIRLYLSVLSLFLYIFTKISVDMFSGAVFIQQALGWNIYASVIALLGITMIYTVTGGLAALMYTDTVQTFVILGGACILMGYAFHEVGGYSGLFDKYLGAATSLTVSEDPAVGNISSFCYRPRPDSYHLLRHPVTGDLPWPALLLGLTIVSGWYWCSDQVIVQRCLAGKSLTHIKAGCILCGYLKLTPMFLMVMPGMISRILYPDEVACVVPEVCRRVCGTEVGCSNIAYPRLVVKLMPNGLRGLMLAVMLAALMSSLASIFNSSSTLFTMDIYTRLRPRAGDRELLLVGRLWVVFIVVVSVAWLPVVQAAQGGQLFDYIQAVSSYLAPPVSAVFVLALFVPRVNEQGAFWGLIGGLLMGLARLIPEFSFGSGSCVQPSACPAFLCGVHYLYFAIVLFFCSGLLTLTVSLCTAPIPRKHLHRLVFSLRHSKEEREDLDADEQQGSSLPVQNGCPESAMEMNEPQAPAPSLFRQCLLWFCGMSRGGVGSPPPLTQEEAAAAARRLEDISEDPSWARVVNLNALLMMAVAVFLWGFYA
# Description: (Test 1) [Test for Confirming Effect of Inhibiting Activity of Human Na^+-Glucose Cotransporter (Human SGLT2)]
# 3) Measurement of Inhibition of methyl-α-D-glucopyranoside Intake
# After removing the medium of a CHO cell which stably express the human SGLT2, a pretreatment buffer solution (buffer solution of pH 7.4 containing choline chloride (140 mM), potassium chloride (2 mM), calcium chloride (1 mM), magnesium chloride (1 mM), 2-[4-(2-hydroxyethyl)-1-piperazinyl]ethanesulfonic acid (10 mM), and tris(hydroxymethyl)aminomethane (5 mM)) was added in the amount of 100 μl per well, and incubated at 37° C. for 20 minutes.
# 11 μl of methyl-α-D-(U-14C) glucopyranoside
# (manufactured by Amersham Pharmacia Biotech) was added to and mixed with 1,000 μl of a buffer solution for intake containing a cocrystal of the present invention (buffer solution of pH 7.4 containing sodium chloride (140 mM), potassium chloride (2 mM), calcium chloride (1 mM), magnesium chloride (1 mM), methyl-α-D-glucopyranoside (50 μM), 2-[4-(2-hydroxyethyl)-1-piperazinyl]ethanesulfonic acid (10 mM), and tris(hydroxymethyl)aminomethane (5 mM)) to prepare a buffer solution for intake. A buffer solution for intake without a test crystal was prepared for a control group. […]
# [4] = 25° C., relative humidity range 5 to 95%
SMILES,"X-ray powder diffraction change associated with the change of relative humidity ([1]; 25° C., relative humidity range of 2 to 88%, continuous measurement)","physical stability of crystals of free form ([1]; crystals from various crystallization conditions, room temperature and low humidity)",water desorbed and absorbed ([2]; 25° C. at 5 to 95% RH),"weight change ([2]; 25° C., from relative humidity of 25 to 35%)","moisture absorption behaviour [2, 4]",physical stability on standing ([1]; 40° C./75% RH/open),physical stability on standing ([1]; 60° C./uncontrolled humidity),physical stability on standing ([1]; 80° C./uncontrolled humidity),physical change on standing ([1]; up to 7 days at room temperature (25° C.) at 63.5% RH to 84% RH),"physical stability in the moisture absorptivity test [2, 4]","moisture content ([2]; 25° C., total relative humidity range of 5 to 95%)",intensity of antihyperglycemic action (ratio of blood sugar AUC to control group) (KK-A^y mice),IC50 [3]
"OC[C@H]1O[C@@H](c2ccc(F)c(Cc3cc4ccccc4s3)c2)[C@H](O)[C@@H](O)[C@@H]1O [known compound A, (1S)-1,5-anhydro-1-[3-(1-benzothien-2-ylmethyl)-4-fluorophenyl]-D-glucitol, reference compound]",shift of diffraction angle,physically unstable crystals,3.2%,sharp increase in weight,non-stoichiometric moisture absorption accompanied by physical change at low humidity,,,,,,,,
"OC[C@H]1O[C@@H](c2ccc(F)c(Cc3cc4ccccc4s3)c2)[C@H](O)[C@@H](O)[C@@H]1O [cocrystal of the present invention, cocrystal of (1S)-1,5-anhydro-1-[3-(1-benzothien-2-ylmethyl)-4-fluorophenyl]-D-glucitol and L-proline]",,,,,no moisture absorptivity,physically stable for at least two months,physically stable for at least two months,physically stable for at least two months,no physical change,stable physically,≤ 0.7%,strong antihypoglycemic action,5.8 nM
